Columns and labels:
[1] = tested on: Male Sprague-Dawley rats; assay: Infiltrative cutaneous anesthesia (inhibition of cutaneous trunci muscle reflex, CTMR) after subcutaneous injection in rats; format: in vivo
Protocol: Male Sprague-Dawley rats (weighing about 200 to 250 g); for each dose of each drug, n=8.
In brief, hairs on the dorsal surface (about 10×10 cm^2) of the thoracolumbar region of the rat were shaved, and the shaved surface was sterilized with iodine for preparation. To reduce the number of animals used, the back of the rat was further divided into left and right parts. One drug was injected first at the right part. After a washout period of one week, another drug was injected at the left part.
0.6 mL of drug was injected subcutaneously under the dorsal surface of the thoracolumbar region of the rat using a 30-gauge needle attached to a syringe (Becton Drive, Franklin Lakes, USA). The subcutaneous injection would result in a circular elevation (i.e., a wheal) of the skin, about 2 cm in diameter. The elevation was marked with ink within 1 minute after injection.
CTMR refers to the reflex movement of the skin of the back caused by twitching of the lateral thoracispinal muscle in response to local dorsal cutaneous stimulation. Essentially, a von Frey filament (No.15; Somedic Sales AB, Sweden) to which a cut end of an 18-gauge needle was affixed was used to produce a standard nociceptive stimulus (strength: 19 g). Six pinpricks (at a frequency of 0.5-1 Hz) were applied to a single marked wheal during each test. […] For example, absence of any response to all of the 6 pinpricks was defined as a complete nociceptive block (i.e., 100% MPE).
The difference resided in that subcutaneous injections of ED25, ED50 and ED75 of the drugs were performed based on the method described in the section “A. Drug injection” of this example, and evaluation of the infiltrative cutaneous anesthetic effect was performed based on the method described in the section “B. Neurobehavioral evaluation” of this example.

[2] = tested on: rats; assay: Systemic safety indices: mortality 24 hours after intraperitoneal injection in rats; conditions: intraperitoneal injection, rats, mortality after 24 hours
Protocol: Essentially, each drug was injected intraperitoneally into the rats (n=8). The number of dead rats was observed after 24 hours, and the rate of mortality (%) was calculated. Thereafter, the doses of each drug and the relative mortality were plotted to obtain dose-mortality curves of the drugs. […] The safety index (LD50/ED50) of each drug was calculated using the LD50 thus obtained and the ED50 obtained in the section “C. Potency evaluation” of this example.

[3] = tested on: Male Sprague-Dawley rats; assay: Spinal anesthetic effect (spinal blockade) after intrathecal injection in rats; format: in vivo; design: AUC of time-% PE curve, spinal blockade of motor function / AUC of time-% PE curve, spinal blockade of proprioception / AUC of time-% PE curve, spinal blockade of nociceptive reaction: unit not given beside the values
Protocol: (§1) Male Sprague-Dawley rats (weighing about 300 to 350 g); for each dose of each drug, n=6.
In brief, for preparation, the hairs on the back of each rat were shaved, and the shaved back was sterilized with iodine.
After three minutes, 50 μL of each of the tested drugs was injected via a 27-gauge needle attached to a 100-μL syringe (Hamilton, Reno, Nev.) into the intrathecal space between the fourth and fifth lumbar vertebrae. The development of spinal blockade was observed from the paralysis of the hind limbs of the rats.
The magnitude of nerve block (including blocking of motor function, proprioception, and nociceptive reaction) was expressed as the percentage of possible effect (hereinafter referred to as % PE), and the maximal value of % PE was expressed as the percentage of maximal possible effect (hereinafter referred to as % MPE).
Motor function was evaluated by measuring the extensor postural thrust of the right hind limbs of the rats using a digital platform balance (Mettler Toledo, Switzerland, model PB1502-S). To test the extensor postural thrust, the rat was held upright with the hind limb extended, so that the body weight of the rat was supported by the distal metatarsus and toes. The extensor postural thrust could be measured as the force of the right hind limb of the rat thrusting the platform balance.
A reduction in the force, resulting in extensor muscle tone, was considered as a motor deficit. A force less than 20 g (i.e., a weight of the “flaccid limb”) was considered absence of an extensor postural thrust or 100% motor block or 100% MPE.
Proprioception was evaluated based on resting posture and postural reactions (including tactile placing and hopping). First, the front half of the rat body and one of the hind limbs were lifted off the ground at the same time so that the rat was standing on one hind limb. Then, the rat was moved laterally, which normally evoked a prompt hopping response of the weight-bearing hind limb of the rat in the direction of movement so as to avoid falling. A predominantly proprioceptive block caused a delayed hopping followed by greater lateral hops. […] Functional deficits were classified into four grades: 3 (normal or 0% MPE), 2 (slightly impaired), 1 (severely impaired), and 0 (completely impaired or 100% MPE).
Nociceptive reaction was evaluated by the withdrawal reflex or vocalization elicited by the pinch of a skin fold over the back at 1 cm near the proximal part of the tail, the lateral metatarsus of the bilateral hind limbs, and the dorsal part of the mid-tail. At each testing time, only one pinch was given to each of the abovementioned four testing sites, and the time interval between stimulations at different sites was around 2 seconds. Nociceptive reactions were classified into five grades: 4 (normal or 0% MPE), 3 (25% MPE), 2 (50% MPE), 1 (75% MPE), and 0 (absent or 100% MPE).
The potency of each drug on spinal blockades was compared using ED50.
Duration was defined as the interval from injection of the tested drugs to complete recovery. The ED25, ED50 and ED75 obtained according to the SAS NLIN analysis in the preceding section “C. Potency evaluation” were used in this experiment.
Regarding the method of evaluating the effect of co-administration, dextromethorphan hydrobromide monohydrate was used as an example.
After the tests, the time of measurement of each drug and its corresponding % PE were plotted to obtain the time-% PE curves of each drug. The area under the curve (AUC) of time-% PE was calculated using the trapezoidal rule, and was used to evaluate the effect of the co-administration of the drugs.
Statistical software, SPSS for Windows® (version 10.0.7) was used. Data were represented as mean±SEM.

[4] = tested on: sciatic nerve; assay: Sciatic nerve blockade after injection at the sciatic nerve notch in rats; format: in vivo; design: AUC of time-% PE curve, sciatic nerve blockade of motor function / AUC of time-% PE curve, sciatic nerve blockade of proprioception / AUC of time-% PE curve, sciatic nerve blockade of nociceptive reaction: unit not given beside the values; conditions: rats
Protocol: as §1
In brief, the rats were slightly anesthetized by inhalation of a low concentration of sevoflurane. Then, 200 μL of tested drugs were injected at the sciatic nerve notch at the left hind limb of the rat using a 27-gauge needle connected to a tuberculin syringe (Becton Dickinson, USA, model BND309623-BX). Thereafter, development of sciatic nerve blockade was observed from the paralysis of the left hind limb of the rat. The right hind limb served as a control during the subsequent functional assay
For proprioception, the front half of the rat body and the right hind limb were off the ground at the same time so that the rat was standing on the left hind limb during the measurement.
The differences resided in that: The sciatic nerve notch injections of ED25, ED50 and ED75 were conducted based on the method described in the preceding section “A. Drug injection” of this example. Evaluations of motor function, proprioception and nociceptive reaction were conducted based on the method described in section “B. Neurobehavioral evaluations” of this example.
The differences resided in that: Before the statistical analysis, Shapiro-Wilk test was used to evaluate whether the data were, theoretically, normally distributed.

[5] = infiltrative cutaneous anesthesia, rats, 2ED50 when administered independently, ED50 for co-administration, mean ± SEM
[6] = infiltrative cutaneous anesthesia, subcutaneous injection, rats
[7] = subcutaneous dose of ED75, rats, mean±SEM
[8] = intrathecal, rats, 2 ED50 when administered independently, ED50 of each drug when co-administered, mean ± SEM
[9] = spinal blockade, mean of motor function, proprioception and nociceptive reaction, intrathecal, rats
[10] = 2ED50 when administered independently, ED50 of each drug when co-administered, mean ± SEM

## Dextrorphan tartrate
[1]; [5]
  % MPE: 73 ± 11 % MPE
  AUC (% min.): 3200 ± 690 % min.
  Duration: 63 ± 7 min
[1]; [6]
  ED25: 4.03 mg/kg
  ED50 (95% CI): 5.66 (5.17–6.21) mg/kg
  ED75: 7.97 mg/kg
[1]; same effective doses (ED25, ED50 or ED75), rats
  duration of cutaneous anesthesia compared with lidocaine hydrochloride: longer duration
[1]; [7]
  % MPE of cutaneous nociceptive block: 73±7 % MPE
  duration of cutaneous nociceptive block: ~48 ± 3 min
[1]; subcutaneous, rats, ED50 of each drug
  effect of co-administration with lidocaine hydrochloride on cutaneous nociceptive blockade: additive effect
[2]
  LD50 (95% CI): 307 (257–369) mg/kg
[3]; intrathecal dose of ED75, rats
  % MPE of spinal blockades of motor function, proprioception and nociceptive reaction (range over the three functions): 62-77 % MPE
  duration of spinal blockades of motor function, proprioception and nociceptive reaction (range over the three functions): 30 to 65 min
[3]; intrathecal, rats, ED50 of each drug
  effect of co-administration with bupivacaine hydrochloride on spinal blockade: synergistic effect
[3]; [8]
  AUC of time-% PE curve, spinal blockade of motor function: 1447 ± 163
  AUC of time-% PE curve, spinal blockade of nociceptive reaction: 4332 ± 382
[3]; spinal blockade of motor function, intrathecal injection, rats
  Motor function ED50 (95% CI): 0.40 (0.39–0.42) mg
[3]; spinal blockade of nociceptive reaction, intrathecal injection, rats
  Nociceptive reaction ED50 (95% CI): 0.28 (0.26–0.30) mg
[3]; spinal blockade of proprioception, intrathecal injection, rats
  Proprioception ED50 (95% CI): 0.32 (0.30–0.35) mg
[3]; [9]
  Mean value ED25: 0.25 mg
  Mean value ED50: 0.33 mg
  Mean value ED75: 0.45 mg
[4]; ED50 of each drug
  effect of co-administration with lidocaine hydrochloride on sciatic nerve blockades: additive effect
[4]; [10]
  AUC of time-% PE curve, sciatic nerve blockade of motor function: 7077 ± 429
  AUC of time-% PE curve, sciatic nerve blockade of nociceptive reaction: 8786 ± 915
  AUC of time-% PE curve, sciatic nerve blockade of proprioception: 7357 ± 558
[4]; same effective doses (ED25, ED50 or ED75)
  duration of sciatic nerve blockade compared with lidocaine hydrochloride: longer reaction duration
[4]; sciatic nerve blockade of motor function
  Motor function ED50 (95% CI): 14.66 (13.78–15.58) mg/kg
[4]; sciatic nerve blockade of nociceptive reaction
  Nociceptive reaction ED50 (95% CI): 13.38 (12.37–14.47) mg/kg
[4]; sciatic nerve blockade of proprioception
  Proprioception ED50 (95% CI): 14.52 (13.40–15.73) mg/kg
[4]; sciatic nerve blockade, mean of motor function, proprioception and nociceptive reaction
  Mean ED50: 14.19 mg/kg

Source: patent publication US20080070939A1, “LOCAL […] COMPOSITIONS CONTAINING DEXTROROTATORY MORPHINAN DERIVATIVES OR PHARMACEUTICALLY ACCEPTABLE SALTS THEREOF” (CHI MEI FOUNDATION HOSPITAL, priority 2006, published 2008)
